Experimental data as given in US20240139135A1, “[…] TREATMENT OF OPIOID USE DISORDER” (THE TRUSTEES OF INDIANA UNIVERSITY, priority 2019, published 2024).
Entries after “also recorded” stand apart in the source; their conditions may differ.

How the values were obtained:
[1] = test system: patients with opioid use disorder (DSM-5 moderate to severe) using opioids for at least three months; assay: Medical chart review of a fifteen-patient outpatient neurology cohort whose opioids were replaced with low-dose Lyrica (pregabalin); assay type: in vivo, human
Experimental: Summary of Experimental Results: Over the span of several years, the present inventor, who is a practicing neurologist, tested various different drugs at varying doses in an attempt to assist patients in their outpatient general neurological practice with cessation of opioid use. Through extensive experimentation, the physician discovered that 25 mg of Lyrica (pregabalin) T.I.D. successfully replaced opioids in a few of their patients, they subsequently expanded their research to other patients.
The charts for the fifteen (15) patients of this cohort were evaluated to ascertain the date that pregabalin was initiated, and the starting dose; the pregabalin dose as of the last available medical record; concomitant pain/CNS medications and concomitant non-pain/CNS medications; records of opioid use, type of opioid and dose (when available); and the temporal relationship between starting pregabalin and no longer requiring opioids. The medications in patient charts were compared with the accompanying medication list for each patient. As these were medical charts, the review was conducted to the extent that information was available.
Diagnosis of opioid use disorder: As a part of the medical chart review, the investigating physician assessed the fifteen (15) patients against the DSM-5 diagnostic criteria for OUD, defined “ . . . as a problematic pattern of opioid use leading to clinically significant impairment or distress, as manifested by at least two (2) pre-defined symptoms.” These criteria include eleven symptoms or behaviors occurring within a 12-month period. A diagnosis of mild OUD requires the presence of 2-3 symptoms, moderate 4-5 symptoms, and severe 6 or more symptoms. Of the fifteen (15) patients, seven (7) had scores in the moderate range and eight (8) had scores in the severe range.

neuropathic pain = conditions: doses of up to 150 mg a day; cited from earlier work

CC(C)C[C@H](CN)CC(=O)O [pregabalin, (S)-(+)-3-aminomethyl-5-methyl-hexanoic acid]
patients for whom opioids were successfully replaced ([1]; 25 mg Lyrica (pregabalin) T.I.D., patients had been using opioids for at least three months, cohort of 15): 15 patients | cravings for opioids ([1]; each of the fifteen patients, low-dose pregabalin): complete cessation of cravings for opioids | side effects or withdrawal symptoms ([1]; fifteen patients, opioids replaced with low-dose pregabalin): no reported side effects or withdrawal symptoms; also recorded: none of the fifteen (15) patients experienced side effects or withdrawal symptoms | patients who decreased their opioids temporally related to (after) starting pregabalin ([1]; of fifteen patients): 2 patients | patients who stopped or decreased their opioids temporally related to (after) starting pregabalin ([1]; of fifteen patients, chart review): ≥ 7 patients | patients who stopped their opioids temporally related to (after) starting pregabalin ([1]; of fifteen patients, one continued tramadol 50 mg Q.I.D. prn): 5 patients | patients who elected to return to opioids for other reasons ([1]; of the fifteen-patient cohort, also effectively cured of cravings): 2 patients | remaining patients, none of whom returned to opioids within the observation period ([1]; of the fifteen-patient cohort, opioids replaced with low doses of Lyrica (pregabalin)): 13 patients | patients started on pregabalin who stopped or decreased their use of opioids (total) ([1]; of the patient charts reviewed (fifteen)): ≥ 11 patients | patients who stopped their opioids while on pregabalin, relative timing not definitively established ([1]; of the remaining eight patients): 4 patients | efficacy for the indicated treatment of neuropathic pain (neuropathic pain): consistently ineffective
